Laboratory results published in PMC12775434, “Ultra-large virtual screening unveils potent agonists of the neuromodulatory orphan receptor GPR139” (Nature Communications, 2025).
Several values for one entry are separate records, joined by “and”; a condition that tells them apart may be missing. Identical values can stand only once.

Assays:
Format in all cases: cell-based
[1] = target: T1, GPR139 (GoA activation) (Homo sapiens, UniProt Q6DWJ6); assay: BRET G protein activation (dissociation) assay, GoA, HEK293A; conditions: for G protein activation, GoA: individual replicates
T1 construct: expressed in transfected cells; host or cells: HEK293A (transient, Lipofectamine 2000)
T1 sequence (Q6DWJ6 1-353): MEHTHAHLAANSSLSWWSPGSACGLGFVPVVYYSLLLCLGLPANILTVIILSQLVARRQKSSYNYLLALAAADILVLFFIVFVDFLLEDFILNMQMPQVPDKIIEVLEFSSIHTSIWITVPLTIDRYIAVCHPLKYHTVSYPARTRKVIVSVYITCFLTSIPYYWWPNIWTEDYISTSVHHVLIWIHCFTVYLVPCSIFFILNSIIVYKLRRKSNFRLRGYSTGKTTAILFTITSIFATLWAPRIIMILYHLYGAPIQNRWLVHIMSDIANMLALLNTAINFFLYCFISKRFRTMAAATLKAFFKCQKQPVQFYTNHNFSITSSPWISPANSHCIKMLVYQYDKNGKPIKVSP
Description: (§1) Primary screening and pharmacological characterization of compounds were performed using a CHO-K1 cell line that stably expresses human GPR139 (GPR139-CHOk1). The GPR139-CHOk1 cell line was kindly provided by H. Lundbeck A/S, Denmark[24]. GPR139-CHOk1 cells were grown in Ham’s F-12 Kaighn’s Modification Medium (ThermoFisher #21127030) supplemented with 10% dialyzed fetal bovine serum (US origin, ThermoFisher #26400044), 100 units/mL Penicillin-Streptomycin (ThermoFisher #15140122), and 1 mg/mL Geneticin (ThermoFisher #11811031). […] M1R-CHOk1 cells were purchased from The Missouri S&T cDNA Resource Center (#CEM100TN00). M1R-CHOk1 cells were grown in Ham’s F12 Medium (ThermoFisher #21765029) supplemented with 10% fetal bovine serum (Brazilian origin, ThermoFisher #10270106), 100 units/mL Penicillin-Streptomycin, and 0.25 mg/mL Geneticin. HEK293A cells transiently transfected with GPR139 were used for additional pharmacological assessment of signaling pathways activated by GPR139. HEK239A cells were generously provided by Dr. Asuka Inoue, Tohoku University, Japan. HEK293A cells were grown in Dulbecco’s Modified Eagle Medium (ThermoFisher #31966047) supplemented with 10% dialyzed fetal bovine serum and 100 units/mL Penicillin-Streptomycin. Cell lines were maintained at 37 °C in humidified incubator equilibrated with 5% CO2.
(§2) The G protein dissociation assay developed by the lab of Kirill A. Martemyanov was used to measure the coupling of multiple G proteins by GPR139[57]. The assay was performed as described previously with minor modifications. HEK293A cells were reverse transfected 20–24 h prior to assay. 50,000 cells were plated in each well of white opaque tissue culture treated 96-well plates (PerkinElmer #6005680) previously coated with poly-D-lysine. Transfection solutions were prepared as described, and 10 µL transfection solution was mixed with 100 µL cells in each well. The cells in each well were transfected with 18.9 ng GPR139, 6.3 ng Venus 1-155 Gγ2, 6.3 ng Venus 159-239 Gβ1, 6.3 ng masGRK3ct-NanoLuc and 12.6 ng Gαi2, 12.6 ng Gαi3, 12.6 ng GαoA, 12.6 ng Gαq or 25.2 ng Gα12 using 375 nL Lipofectamine 2000 Transfection Reagent. Transfections with Gαq and Gα12 contained 6.3 ng DNA of the active subunit S1 of pertussis toxin (PTX-S1). Each transfection was normalized to 150 ng total DNA with pcDNA3.1. The BRET biosensors were a kind gift from the Martemyanov lab. On the day of the experiment the cells were washed with HEPES buffer. Test compounds were diluted in HEPES buffer from DMSO stocks (final DMSO concentration of maximally 0.3%). NanoLuc Luciferase substrate NanoGlo—furimazine (Promega #N1120) was diluted 1000-fold (final) in HEPES buffer. NanoGlo and test compounds were added, and measurements were performed after 10 s for Gi3, 15 s for Gi2 and GoA, 20 s for Gq, and 90 s for G12—the timepoint where maximal signal occurred with each G protein, ensuring proper determination of the potency for the G protein coupling. Simultaneous dual emission was measured at 535 nm and 475 nm on LUMIstar Omega Microplate Reader (BMG Labtech) at room temperature. The BRET ratio of 535 nm/475 nm (Venus/NanoLuc), reflecting the dissociation of the G protein heterotrimer, was used to determine the G protein activation. The basal BRET ratio obtained with buffer condition was subtracted from the absolute BRET ratio at a given test compound concentration, and the responses were normalized to the one obtained with 10 µM JNJ-63533054 for the activation of Gi2.
(§3) Pharmacological data and statistical analyses were performed in GraphPad Prism v9–10 (Graphpad Software Inc., San Diego, CA), which are also specifically described in the figure and table legends. […]

[2] = target: T2, GPR139 (G12 activation) (Homo sapiens, UniProt Q6DWJ6); assay: BRET G protein activation (dissociation) assay, G12, HEK293A; conditions: for G protein activation, G12: individual replicates
T2 construct: expressed in transfected cells; host or cells: HEK293A (transient, Lipofectamine 2000)
T2 sequence (Q6DWJ6 1-353): T1 sequence (Q6DWJ6 1-353)
Description: as §1, §2, §3

[3] = target: T3, GPR139 (Gi3 activation) (Homo sapiens, UniProt Q6DWJ6); assay: BRET G protein activation (dissociation) assay, Gi3, HEK293A; conditions: for G protein activation, Gi3: individual replicates
T3 construct: expressed in transfected cells; host or cells: HEK293A (transient, Lipofectamine 2000)
T3 sequence (Q6DWJ6 1-353): T1 sequence (Q6DWJ6 1-353)
Description: as §1, §2, §3

[4] = HEK293-A, normalized to JNJ-63533054 (JNJ(S))

Compound: C[C@@H](NC(=O)CNC(=O)c1cccc(Cl)c1)c1ccccc1 [JNJ(R), reference compound]
- Emax [1, 4]: 79 ± 1%
- EC50 ([1]; Supplementary Table 6): 5.01 µM
- G protein activation, GoA ([1]; log [compound] M -4.5): 73 % of JNJ-63533054 at Gi2 and 70 % of JNJ-63533054 at Gi2 and 62 % of JNJ-63533054 at Gi2
- G protein activation, GoA ([1]; log [compound] M -5.0): 58 % of JNJ-63533054 at Gi2 and 53 % of JNJ-63533054 at Gi2 and 47 % of JNJ-63533054 at Gi2
- G protein activation, GoA ([1]; log [compound] M -5.5): 37 % of JNJ-63533054 at Gi2 and 33 % of JNJ-63533054 at Gi2 and 28 % of JNJ-63533054 at Gi2
- G protein activation, GoA ([1]; log [compound] M -6.0): 16 % of JNJ-63533054 at Gi2 and 13 % of JNJ-63533054 at Gi2 and 14 % of JNJ-63533054 at Gi2
- G protein activation, GoA ([1]; log [compound] M -6.5): 5.7 % of JNJ-63533054 at Gi2 and 1.59 % of JNJ-63533054 at Gi2 and 5.63 % of JNJ-63533054 at Gi2
- G protein activation, GoA ([1]; log [compound] M -7.0): -0.263 % of JNJ-63533054 at Gi2 and -1.74 % of JNJ-63533054 at Gi2 and 2.49 % of JNJ-63533054 at Gi2
- G protein activation, GoA ([1]; log [compound] M -7.5): -1.44 % of JNJ-63533054 at Gi2 and 0.514 % of JNJ-63533054 at Gi2 and 0.72 % of JNJ-63533054 at Gi2
- G protein activation, GoA ([1]; log [compound] M -8.0): -1.46 % of JNJ-63533054 at Gi2 and -2.26 % of JNJ-63533054 at Gi2 and 3.8 % of JNJ-63533054 at Gi2
- Emax [2, 4]: 48 ± 3%
- EC50 ([2]; Supplementary Table 6, read-out: pEC50 G12 (converted)): 3.98 µM
- G protein activation, G12 ([2]; log [compound] M -4.5): 45 % of JNJ-63533054 at Gi2 and 42 % of JNJ-63533054 at Gi2 and 41 % of JNJ-63533054 at Gi2
- G protein activation, G12 ([2]; log [compound] M -5.0): 37 % of JNJ-63533054 at Gi2 and 34 % of JNJ-63533054 at Gi2 and 33 % of JNJ-63533054 at Gi2
- G protein activation, G12 ([2]; log [compound] M -5.5): 24 % of JNJ-63533054 at Gi2 (2×) and 19 % of JNJ-63533054 at Gi2
- G protein activation, G12 ([2]; log [compound] M -6.0): 13 % of JNJ-63533054 at Gi2 and 11 % of JNJ-63533054 at Gi2 and 9 % of JNJ-63533054 at Gi2
- G protein activation, G12 ([2]; log [compound] M -6.5): 7 % of JNJ-63533054 at Gi2 and 5 % of JNJ-63533054 at Gi2 and 2.85 % of JNJ-63533054 at Gi2
- G protein activation, G12 ([2]; log [compound] M -7.0): 1.33 % of JNJ-63533054 at Gi2 and 4 % of JNJ-63533054 at Gi2 and 0.154 % of JNJ-63533054 at Gi2
- G protein activation, G12 ([2]; log [compound] M -7.5): 0.474 % of JNJ-63533054 at Gi2 and 6 % of JNJ-63533054 at Gi2 and 1.7 % of JNJ-63533054 at Gi2
- G protein activation, G12 ([2]; log [compound] M -8.0): -0.892 % of JNJ-63533054 at Gi2 and 6 % of JNJ-63533054 at Gi2 and 2.38 % of JNJ-63533054 at Gi2
- Emax [3, 4]: 35 ± 6%
- EC50 ([3]; Supplementary Table 6, read-out: pEC50 Gi3 (converted)): 3.98 µM
- G protein activation, Gi3 ([3]; log [compound] M -4.5): 36 % of JNJ-63533054 at Gi2 and 21 % of JNJ-63533054 at Gi2 and 35 % of JNJ-63533054 at Gi2
- G protein activation, Gi3 ([3]; log [compound] M -5.0): 29 % of JNJ-63533054 at Gi2 and 16 % of JNJ-63533054 at Gi2 and 28 % of JNJ-63533054 at Gi2
- G protein activation, Gi3 ([3]; log [compound] M -5.5): 20 % of JNJ-63533054 at Gi2 and 7 % of JNJ-63533054 at Gi2 and 23 % of JNJ-63533054 at Gi2
- G protein activation, Gi3 ([3]; log [compound] M -6.0): 11 % of JNJ-63533054 at Gi2 (2×) and 4 % of JNJ-63533054 at Gi2
- G protein activation, Gi3 ([3]; log [compound] M -6.5): 5.48 % of JNJ-63533054 at Gi2 and -1.21 % of JNJ-63533054 at Gi2 and 3.19 % of JNJ-63533054 at Gi2
- G protein activation, Gi3 ([3]; log [compound] M -7.0): 3.32 % of JNJ-63533054 at Gi2 and -6 % of JNJ-63533054 at Gi2 and 6 % of JNJ-63533054 at Gi2
- G protein activation, Gi3 ([3]; log [compound] M -7.5): 3 % of JNJ-63533054 at Gi2 and -5 % of JNJ-63533054 at Gi2 and 7.51 % of JNJ-63533054 at Gi2
- G protein activation, Gi3 ([3]; log [compound] M -8.0): -1 % of JNJ-63533054 at Gi2 and -3.25 % of JNJ-63533054 at Gi2 and 5 % of JNJ-63533054 at Gi2
